The target of assay [1] is T1, Caspase-6 (Homo sapiens, UniProt P55212).
T1 sequence (P55212 whole entry): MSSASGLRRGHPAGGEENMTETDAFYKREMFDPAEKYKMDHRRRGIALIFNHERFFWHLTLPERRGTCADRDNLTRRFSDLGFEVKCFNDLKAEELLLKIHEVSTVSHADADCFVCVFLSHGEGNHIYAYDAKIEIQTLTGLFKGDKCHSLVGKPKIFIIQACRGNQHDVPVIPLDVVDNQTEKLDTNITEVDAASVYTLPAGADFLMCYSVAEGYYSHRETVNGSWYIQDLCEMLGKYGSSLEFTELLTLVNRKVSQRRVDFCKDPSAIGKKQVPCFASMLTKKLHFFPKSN
Briefly: Inhibition of caspase-6 (unknown origin).

For assay [2], the target named is T2, Caspase-5 (Homo sapiens, UniProt P51878).
T2 sequence (P51878 whole entry): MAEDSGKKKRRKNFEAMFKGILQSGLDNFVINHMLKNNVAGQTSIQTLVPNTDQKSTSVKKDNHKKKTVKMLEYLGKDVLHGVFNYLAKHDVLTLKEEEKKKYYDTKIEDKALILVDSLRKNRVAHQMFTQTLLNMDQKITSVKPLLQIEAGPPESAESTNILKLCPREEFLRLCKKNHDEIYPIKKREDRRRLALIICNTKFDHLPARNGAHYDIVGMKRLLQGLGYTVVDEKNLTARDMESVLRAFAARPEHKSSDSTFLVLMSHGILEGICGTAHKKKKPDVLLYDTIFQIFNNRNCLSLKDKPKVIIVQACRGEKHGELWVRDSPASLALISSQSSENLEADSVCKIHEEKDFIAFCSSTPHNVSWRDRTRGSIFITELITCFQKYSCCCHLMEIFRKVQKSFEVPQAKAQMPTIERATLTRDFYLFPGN
Briefly: Inhibition of caspase-5 (unknown origin).

Assay [3] addresses T3, Caspase-2 (Homo sapiens, UniProt P42575).
T3 sequence (P42575 whole entry): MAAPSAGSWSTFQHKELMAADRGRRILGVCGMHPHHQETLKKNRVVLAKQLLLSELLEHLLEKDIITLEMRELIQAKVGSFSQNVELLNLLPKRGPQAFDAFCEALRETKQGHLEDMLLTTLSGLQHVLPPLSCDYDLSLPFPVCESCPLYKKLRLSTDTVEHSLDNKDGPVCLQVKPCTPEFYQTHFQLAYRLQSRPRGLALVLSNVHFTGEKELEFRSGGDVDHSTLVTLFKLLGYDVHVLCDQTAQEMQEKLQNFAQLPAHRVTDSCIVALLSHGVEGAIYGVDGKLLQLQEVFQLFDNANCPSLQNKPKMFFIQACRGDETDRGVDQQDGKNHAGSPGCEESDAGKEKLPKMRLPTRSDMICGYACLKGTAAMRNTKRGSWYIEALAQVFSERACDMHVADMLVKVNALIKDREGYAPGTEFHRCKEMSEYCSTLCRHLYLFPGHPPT
Description: Inhibition of caspase-2 (unknown origin).

The target in assay [4] is T4, Caspase-10 (Homo sapiens, UniProt Q92851).
T4 sequence (Q92851 whole entry): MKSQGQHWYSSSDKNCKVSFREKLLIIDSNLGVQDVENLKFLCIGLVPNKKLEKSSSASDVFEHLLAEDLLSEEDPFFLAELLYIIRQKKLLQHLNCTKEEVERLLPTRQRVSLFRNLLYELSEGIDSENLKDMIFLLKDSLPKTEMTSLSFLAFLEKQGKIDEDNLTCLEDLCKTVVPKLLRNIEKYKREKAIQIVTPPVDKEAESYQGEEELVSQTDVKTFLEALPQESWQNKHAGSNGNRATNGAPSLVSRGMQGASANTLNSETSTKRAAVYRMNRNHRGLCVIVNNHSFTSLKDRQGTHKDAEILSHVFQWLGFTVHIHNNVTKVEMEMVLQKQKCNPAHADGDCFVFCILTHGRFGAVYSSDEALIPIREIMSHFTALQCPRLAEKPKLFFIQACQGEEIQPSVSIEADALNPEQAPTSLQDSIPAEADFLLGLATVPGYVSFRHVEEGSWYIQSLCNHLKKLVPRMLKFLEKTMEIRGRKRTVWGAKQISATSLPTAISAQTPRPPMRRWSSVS
Description: Inhibition of caspase-10 (unknown origin).

Assay [5] addresses T5, Caspase-7 (Homo sapiens, UniProt P55210).
T5 sequence (P55210 whole entry): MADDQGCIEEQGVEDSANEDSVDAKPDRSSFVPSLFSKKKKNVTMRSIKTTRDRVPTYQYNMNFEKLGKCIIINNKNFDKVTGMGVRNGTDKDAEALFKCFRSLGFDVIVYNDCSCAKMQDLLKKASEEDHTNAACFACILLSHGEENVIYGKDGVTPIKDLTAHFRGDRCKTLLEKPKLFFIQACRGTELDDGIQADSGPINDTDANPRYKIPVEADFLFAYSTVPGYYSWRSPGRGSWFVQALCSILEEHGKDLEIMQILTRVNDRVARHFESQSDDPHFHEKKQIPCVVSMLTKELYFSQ
Description: Inhibition of caspase-7 (unknown origin).

The target in assay [6] is Caspase-8 (Homo sapiens, UniProt Q14790). Briefly: Inhibition of caspase-8 (unknown origin).
The target in assay [7] is T6, Caspase-9 (Homo sapiens, UniProt P55211).
T6 sequence (P55211 whole entry): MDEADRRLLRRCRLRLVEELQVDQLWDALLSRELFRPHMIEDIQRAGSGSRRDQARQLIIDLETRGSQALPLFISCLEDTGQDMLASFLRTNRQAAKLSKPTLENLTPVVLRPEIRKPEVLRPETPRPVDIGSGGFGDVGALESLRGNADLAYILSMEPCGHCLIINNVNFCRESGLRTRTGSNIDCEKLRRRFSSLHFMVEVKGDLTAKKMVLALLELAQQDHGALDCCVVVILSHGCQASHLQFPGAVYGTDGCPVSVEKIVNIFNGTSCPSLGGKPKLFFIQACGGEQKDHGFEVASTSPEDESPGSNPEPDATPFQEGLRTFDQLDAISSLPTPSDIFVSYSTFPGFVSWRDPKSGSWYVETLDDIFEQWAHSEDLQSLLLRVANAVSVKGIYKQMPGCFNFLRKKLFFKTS
Description: Inhibition of caspase-9 (unknown origin).

Assay [8] deals with T7, Caspase-4 (Homo sapiens, UniProt P49662).
T7 sequence (P49662 whole entry): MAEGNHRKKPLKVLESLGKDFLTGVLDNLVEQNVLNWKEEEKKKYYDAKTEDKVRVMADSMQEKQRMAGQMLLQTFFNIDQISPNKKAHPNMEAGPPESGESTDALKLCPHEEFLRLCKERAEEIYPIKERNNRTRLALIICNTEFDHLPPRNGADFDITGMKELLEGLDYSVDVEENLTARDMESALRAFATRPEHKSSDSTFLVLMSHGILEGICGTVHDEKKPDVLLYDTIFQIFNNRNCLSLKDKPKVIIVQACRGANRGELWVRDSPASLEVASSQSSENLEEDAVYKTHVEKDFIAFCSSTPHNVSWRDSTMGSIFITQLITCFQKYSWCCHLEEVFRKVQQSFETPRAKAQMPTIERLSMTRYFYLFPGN
Briefly: Inhibition of caspase-4 (unknown origin).

In assay [9] the target is T8, Caspase-3 (Homo sapiens, UniProt P42574).
T8 sequence (P42574 whole entry): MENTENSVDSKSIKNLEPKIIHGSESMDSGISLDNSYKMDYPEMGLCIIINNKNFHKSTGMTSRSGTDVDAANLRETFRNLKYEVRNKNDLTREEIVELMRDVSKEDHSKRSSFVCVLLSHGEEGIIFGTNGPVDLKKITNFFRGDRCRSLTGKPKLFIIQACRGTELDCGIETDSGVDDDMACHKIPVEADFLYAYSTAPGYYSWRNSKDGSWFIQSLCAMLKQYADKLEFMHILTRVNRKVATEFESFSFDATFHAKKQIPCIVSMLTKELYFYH
Briefly: Inhibition of caspase-3 (unknown origin).

For assay [10], the target named is T9, Caspase-1 (Homo sapiens, UniProt P29466).
T9 sequence (P29466 whole entry): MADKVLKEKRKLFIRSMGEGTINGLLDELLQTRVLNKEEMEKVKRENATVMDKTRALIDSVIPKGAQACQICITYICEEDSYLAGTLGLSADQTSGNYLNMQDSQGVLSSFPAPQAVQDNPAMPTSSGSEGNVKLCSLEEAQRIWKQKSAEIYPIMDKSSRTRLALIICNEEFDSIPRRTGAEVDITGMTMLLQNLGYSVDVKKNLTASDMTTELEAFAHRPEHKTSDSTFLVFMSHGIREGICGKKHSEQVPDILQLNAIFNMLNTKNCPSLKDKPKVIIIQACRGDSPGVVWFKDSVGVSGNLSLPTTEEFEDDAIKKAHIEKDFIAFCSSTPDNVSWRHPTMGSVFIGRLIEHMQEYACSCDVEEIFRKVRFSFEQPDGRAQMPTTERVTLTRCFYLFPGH
Description: Inhibition of caspase-1 (unknown origin).

Sequence of Caspase-8 (Q14790 217-374 limits assumed): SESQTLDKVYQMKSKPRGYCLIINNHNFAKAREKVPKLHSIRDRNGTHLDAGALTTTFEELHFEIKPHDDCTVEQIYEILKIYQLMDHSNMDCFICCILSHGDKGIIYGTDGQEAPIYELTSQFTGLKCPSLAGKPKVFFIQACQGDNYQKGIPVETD
Sequence of Caspase-8 (Q14790 385-479 limits assumed): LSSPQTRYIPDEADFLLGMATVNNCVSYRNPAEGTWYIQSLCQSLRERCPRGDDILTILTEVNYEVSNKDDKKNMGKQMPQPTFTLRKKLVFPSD

For the compound `CCOC(=O)/C=C/[C@H](CC(=O)O)NC(=O)[C@@H](NC(=O)[C@@H](NC(=O)[C@H](CC(=O)O)NC(=O)OCc1ccccc1)c1ccccc1)C(C)C`, the 50% inhibitory concentration (IC50) in assay [1], in assay [2] and in assay [3] was greater than 100 µM each time.
Regarding `CC[C@H](C)[C@H](NC(=O)[C@H](CCC(N)=O)NC(=O)[C@@H](NC(=O)OCc1ccccc1)C(C)C)C(=O)N[C@H](/C=C/S(C)(=O)=O)CC(=O)O`, the IC50 in assay [4] is 0.13 µM; in assay [5] it was greater than 100 µM; in assay [1], 0.6 µM; in assay [6], 0.6 µM; in [7] it was 0.8 µM; in assay [8], 0.37 µM. Further, the concentration for half-maximal inhibition (IC50) in [2] was 19.5 µM; in assay [9] it was 6.9 µM; in [10], 2.7 µM; in [3], greater than 100 µM.
With `CC(C)(C)[C@@H](NC(=O)c1ccc(N)c(Cl)c1)C(=O)N1CCC[C@H]1C(=O)N[C@H](/C=C/S(C)(=O)=O)CC(=O)O`, the 50% inhibitory concentration (IC50) in [4] was 2.67 µM; in assay [5] it was 24.5 µM; in assay [1] it was greater than 100 µM; in assay [6], 12.9 µM; in assay [7], 2.3 µM; in [8] it was 0.09 µM. Also, the half-maximal inhibitory concentration (IC50) in [2] is 0.56 µM; in [9] it was greater than 100 µM; in assay [10], 0.02 µM; in [3], greater than 100 µM.
Take `CC[C@H](C)[C@H](NC(=O)[C@H](CCC(N)=O)NC(=O)[C@H](Cc1c[nH]c2ccccc12)NC(=O)OCc1ccccc1)C(=O)N[C@H](/C=C/S(C)(=O)=O)CC(=O)O`: the half-maximal inhibitory concentration (IC50) worked out at 3.3 µM in [4]; 23.7 µM in assay [5]; 100 µM in [1]; 5.93 µM in assay [6]; 1.74 µM in [7]; 0.18 µM in [8]. Further, the IC50 in assay [2] is 0.75 µM; in assay [9] it was 6.5 µM; in assay [10], 0.026 µM; in assay [3], greater than 100 µM.
`CC(C)(C)[C@H](NC(=O)[C@H](CC(=O)O)NC(=O)OCc1ccccc1)C(=O)N1CC[C@H]1C(=O)N[C@H](/C=C/S(C)(=O)=O)CC(=O)O`: the half-maximal inhibitory concentration (IC50) was 0.42 µM in [4]; 0.5 µM in assay [5]; greater than 100 µM in [1]; 4.1 µM in assay [6]; 1.1 µM in assay [7]; 5.6 µM in [8]. Further, the 50% inhibitory concentration (IC50) in assay [2] turned out to be 35.2 µM; in assay [9], 0.28 µM; in assay [10], 13.2 µM; in assay [3], 13.1 µM.

One may read the IC50 as the concentration at which inhibition is half-maximal.

Source of the values: ChEMBL document CHEMBL2321675, “Irreversible inhibitors of cysteine proteases” (ACS Med Chem Lett, 2013).
